For one series, the system named is HeLa cells. The experiment in a line: Effect on HeLa cells viability in vitro. Format: cell-based. Conditions: Homo sapiens, read-out: Effect of HeLa cells viability in vitro ID50. As to the method: (§1) The new antibiotics W, Y and Z have been tested against HeLa cells in vitro (time of exposure to the drugs: 24 hours), and on L 1210 and P 388 leukemia in mice in comparison with daunorubicin.
(a) HeLa cells were exposed to the drugs for 24 hrs, then plated.

The subject of another series is P 388 leukemia. Put plainly: Antitumor activity on P 388 leukemia in mice. As to conditions: for P-388 Toxic deaths: evaluated on macroscopic findings. Type of series: in vivo. On the procedure: as §1
(§2) (b) Mice were treated i.p. on day 1 after tumor cell inoculation.
(§3) (c) Evaluated on the basis of macroscopic findings.

For the next series, the system named is L 1210 leukemia. Put plainly: Antitumor activity on L 1210 leukemia in mice. As to conditions: for L-1210 Toxic deaths: evaluated on macroscopic findings. Type of series: in vivo. As to the method: as §1, §2, §3
The nature of a further series: Solubility. As to conditions: aglycone from acid hydrolysis. Type of series: physicochemical.
Where [1] appears, read: HeLa cells exposed to the drugs for 24 hrs, then plated.
The mark [2] stands for this setting: 1.0 mg/kg i.p. on day 1 after tumor cell inoculation.
Setting [3] is: 1.2 mg/kg i.p. on day 1 after tumor cell inoculation.
[4] abbreviates: 1.9 mg/kg i.p. on day 1 after tumor cell inoculation.
Setting [5] is: 2.9 mg/kg i.p. on day 1 after tumor cell inoculation.
Where [6] appears, read: 4.4 mg/kg i.p. on day 1 after tumor cell inoculation.
The mark [7] stands for this setting: 6.6 mg/kg i.p. on day 1 after tumor cell inoculation.

Counter-ions that a name gives are not always drawn. Like-named read-outs stand apart in the source and are kept apart here.

The values that follow come from patent publication US4370474A, “11-Deoxy-carminomycin compounds” (Farmitalia Carlo Erba S.p.A., priority 1978, dated 1983).

On to `C[C@@H]1O[C@@H](O[C@H]2C[C@](O)(C(=O)CO)Cc3cc4c(c(O)c32)C(=O)c2c(O)cccc2C4=O)C[C@H](N)[C@@H]1O` [Antibiotic W.HCl], for which, in the series on HeLa cells (setting [1]), the IC50 worked out at 8.8 ng/mL. Also, the “P-388 Toxic deaths” value in the series on P 388 leukemia (1.0 mg/kg i.p. on day 1) was 0/10; in the series on P 388 leukemia (1.5 mg/kg i.p. on day 1), 0/20; in the series on P 388 leukemia (2.25 mg/kg i.p. on day 1), 0/20; in the series on P 388 leukemia (3.4 mg/kg i.p. on day 1), 0/10; in the series with P 388 leukemia (5.0 mg/kg i.p. on day 1) it was 1/9. The “P-388 T/C” value in the series with P 388 leukemia (setting [2]) is 159%; in the series with P 388 leukemia (1.5 mg/kg i.p. on day 1 after tumor cell inoculation), 172%; in the series on P 388 leukemia (2.25 mg/kg i.p. on day 1 after tumor cell inoculation) it was 163%; in the series on P 388 leukemia (3.4 mg/kg i.p. on day 1 after tumor cell inoculation) it was 190%; with P 388 leukemia (5.0 mg/kg i.p. on day 1 after tumor cell inoculation) it was 204%.
`CC(=O)[C@]1(O)Cc2cc3c(c(O)c2[C@@H](O[C@H]2C[C@H](N)[C@H](O)[C@H](C)O2)C1)C(=O)c1c(O)cccc1C3=O` [Antibiotic Y.HCl]: in the series with HeLa cells (setting [1]), the IC50 worked out at 9.6 ng/mL. Moreover, the “L-1210 T/C” value with L 1210 leukemia (0.8 mg/kg i.p. on day 1 after tumor cell inoculation) is 111%; in the series with L 1210 leukemia (setting [3]) it was 128%; with L 1210 leukemia (setting [4]) it was 122%; in the series on L 1210 leukemia (setting [5]) it was 111%. In addition, the “L-1210 Toxic deaths” value in the series on L 1210 leukemia (2.9 mg/kg i.p. on day 1) is given as 8/10. In addition, the figures for the “P-388 T/C” value with P 388 leukemia (setting [3]) and in the series with P 388 leukemia (setting [4]) were 145% and 159%, respectively.
In the case of `CC[C@]1(O)Cc2cc3c(c(O)c2[C@@H](O[C@H]2C[C@H](N)[C@H](O)[C@H](C)O2)C1)C(=O)c1c(O)cccc1C3=O` [Antibiotic Z.HCl], the IC50 in the series on HeLa cells (setting [1]) is 15 ng/mL. Besides, the “L-1210 T/C” value in the series with L 1210 leukemia (setting [5]) was determined as 125%; with L 1210 leukemia (setting [6]), 131%; in the series on L 1210 leukemia (setting [7]), 137%. For the same molecule, the “L-1210 Toxic deaths” value was 2/10 in the series on L 1210 leukemia (4.4 mg/kg i.p. on day 1) and 5/10 in the series on L 1210 leukemia (6.6 mg/kg i.p. on day 1). In addition, the “P-388 T/C” value in the series on P 388 leukemia (setting [2]) came to 140%; with P 388 leukemia (2.0 mg/kg i.p. on day 1 after tumor cell inoculation) it was 140%; in the series with P 388 leukemia (setting [6]) it was 100%. The “P-388 Toxic deaths” value in the series on P 388 leukemia (4.4 mg/kg i.p. on day 1) is given as 7/8.
Turning to `COc1cccc2c1C(=O)c1c(O)c3c(c(O)c1C2=O)C[C@@](O)(C(C)=O)C[C@@H]3O[C@H]1C[C@H](N)[C@H](O)[C@H](C)O1` [Daunorubicin.HCl, daunorubicin, reference compound], the IC50 in the series with HeLa cells (HeLa, 24 h) is 7.5 ng/mL. Further, the “L-1210 T/C” value in the series on L 1210 leukemia (setting [5]) is given as 144-150%; with L 1210 leukemia (setting [6]), 140-162%; with L 1210 leukemia (setting [7]), 144-162%. Besides, the “L-1210 Toxic deaths” value in the series on L 1210 leukemia (4.4 mg/kg i.p. on day 1) is reported as 1/20; in the series on L 1210 leukemia (6.6 mg/kg i.p. on day 1) it was 3/19. Besides, the “P-388 Toxic deaths” value with P 388 leukemia (2.9 mg/kg i.p. on day 1) was 2/8; with P 388 leukemia (4.4 mg/kg i.p. on day 1), 6/8; in the series on P 388 leukemia (6.6 mg/kg i.p. on day 1), 7/8. In addition, the “P-388 T/C” value was 170% in the series on P 388 leukemia (setting [5]), 175% with P 388 leukemia (setting [6]) and 160% in the series with P 388 leukemia (setting [7]).
With `CC(=O)[C@]1(O)Cc2cc3c(c(O)c2[C@@H](O)C1)C(=O)c1c(O)cccc1C3=O` [aglycone of the antibiotic Y], in “Solubility”, the solubility in water result is listed as “water insoluble”.
